Laboratory results: the supplement of paper PMC10307832

Tests used:
Experiment in all cases: relative viability (nuclei count vs DMSO), 5 days (fraction); higher = more cells survive
[1] = compound: C1/C(=C\C2=CC=CS2)/C(=O)/C(=C/C3=CC=CS3)/C1 + CC1(C)CCC(c2ccc(Cl)cc2)=C(CN2CCN(c3ccc(C(=O)NS(=O)(=O)c4ccc(N[C@H](CCN5CCOCC5)CSc5ccccc5)c(S(=O)(=O)C(F)(F)F)c4)cc3)CC2)C1 [Navitoclax] (partner 0.5 µM)
Outline: (§1)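 The day after seeding in 1536-well plates, lung cancer cell lines were treated by pin tool with a single drug, or with a fixed anchor-drug dose together with five library-drug doses (not always all listed) in √10 steps. After 5 days, a combined fix-and-stain solution (final 0.05% Triton X-100, 1% formaldehyde, 1 ug/ml Hoechst) was added. Nuclei counted on 4× images gave relative viability as treated counts over vehicle counts, reported as the median of duplicate plates.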

[2] = compound: C1/C(=C\C2=CC=CS2)/C(=O)/C(=C/C3=CC=CS3)/C1 + CS(=O)(=O)CCNCc1ccc(-c2ccc3ncnc(Nc4ccc(OCc5cccc(F)c5)c(Cl)c4)c3c2)o1 [Lapatinib] (partner 2 µM)
Outline: as §1

[3] = compound: C1=CC(=CC=C1C2=CC(=C(S2)NC(=O)N)C(=O)N)F [TPCA-1] + CC(C)C[C@H](NC(=O)[C@H](Cc1ccccc1)NC(=O)c1cnccn1)B(O)O [Bortezomib] (partner 0.002 µM)
Outline: as §1

[4] = compound: C1=CC(=CC=C1C2=CC(=C(S2)NC(=O)N)C(=O)N)F [TPCA-1] + C[C@]1(O)C[C@@H](c2nc(-c3ccc4ccc(-c5ccccc5)nc4c3)c3c(N)nccn32)C1 [Linsitinib] (partner 1 µM)
Outline: as §1

Row | Cell Line | relative viability ([1]; first compound 0.2 µM) | relative viability ([1]; first compound 0.6325 µM) | relative viability ([1]; first compound 2 µM) | relative viability ([1]; first compound 6.325 µM) | relative viability ([1]; first compound 20 µM) | relative viability ([2]; first compound 0.2 µM) | relative viability ([2]; first compound 0.6325 µM) | relative viability ([2]; first compound 2 µM) | relative viability ([2]; first compound 6.325 µM) | relative viability ([2]; first compound 20 µM) | relative viability ([3]; first compound 0.04 µM) | relative viability ([3]; first compound 0.1265 µM) | relative viability ([3]; first compound 0.4 µM) | relative viability ([3]; first compound 1.265 µM) | relative viability ([3]; first compound 4 µM) | relative viability ([4]; first compound 0.04 µM) | relative viability ([4]; first compound 0.1265 µM) | relative viability ([4]; first compound 0.4 µM) | relative viability ([4]; first compound 1.265 µM) | relative viability ([4]; first compound 4 µM)
1 | HCC-78 | 0.81 | 0.786 | 0.82 | 0.682 | 0.782 | 0.759 | 0.828 | 1.1 | 0.562 | 0.814 | 0.437 | 0.439 | 0.531 | 0.27 | 0.281 | 0.555 | 0.429 | 0.506 | 0.413 | 0.399
2 | NCI-H2085 | 1.13 | 1.16 | 1.03 | 1.15 | 1.09 | 0.876 | 0.768 | 0.876 | 0.692 | 0.701 | 1.13 | 1.06 | 1.04 | 0.965 | 1.01 | 0.901 | 0.859 | 1 | 0.912 | 0.926
3 | H3255 | 0.583 | 0.501 | 0.669 | 0.393 | 0.453 | 0.235 | 0.296 | 0.127 | 0.227 | 0.237 | 0.872 | 0.758 | 0.701 | 0.595 | 0.691 | 1.06 | 0.826 | 0.95 | 0.866 | 0.708
4 | NCI-H2087 | 1.13 | 1.04 | 0.933 | 0.669 | 1.05 | 0.866 | 0.825 | 1.08 | 0.894 | 1.09 | 0.777 | 0.709 | 0.666 | 0.815 | 0.455 | 0.989 | 0.938 | 1.03 | 0.836 | 0.553
5 | LC-2-ad | 0.451 | 0.451 | 0.399 | 0.406 | 0.49 | 0.891 | 1.03 | 0.939 | 0.747 | 0.973 | 1.11 | 1.01 | 0.94 | 1.04 | 0.371 | 0.92 | 0.71 | 0.833 | 0.807 | 0.331
6 | PC-3 [JPC-3] | 0.83 | 0.753 | 0.904 | 0.716 | 0.841 | 0.445 | 0.406 | 0.512 | 0.461 | 0.446 | 0.896 | 0.812 | 0.833 | 0.792 | 0.851 | 0.968 | 0.875 | 0.946 | 0.9 | 0.937
7 | EBC-1 | 0.439 | 0.469 | 0.478 | 0.398 | 0.497 | 0.19 | 0.197 | 0.237 | 0.205 | 0.221 | 0.521 | 0.617 | 0.618 | 0.59 | 0.479 | 1.06 | 0.825 | 0.815 | 0.844 | 0.814
8 | HCC-15 | 0.696 | 0.676 | 0.682 | 0.621 | 0.615 | 0.929 | 0.897 | 0.835 | 0.762 | 0.854 | 1.21 | 0.944 | 1.06 | 1.01 | 0.817 | 0.951 | 0.886 | 0.82 | 0.895 | 0.802
9 | COR-L 105 | 0.623 | 0.772 | 0.79 | 0.737 | 0.701 | 0.355 | 0.37 | 0.38 | 0.304 | 0.361 | 0.846 | 0.808 | 0.982 | 0.516 | 0.333 | 0.959 | 1.03 | 0.801 | 0.862 | 0.781
10 | NCI-H520 | 0.98 | 1.06 | 1.15 | 0.856 | 1 | 0.912 | 0.896 | 0.786 | 0.817 | 0.763 | 0.82 | 0.607 | 0.717 | 0.453 | 0.252 | 1.16 | 0.832 | 0.989 | 0.838 | 0.921
11 | LU99A | 0.734 | 0.796 | 0.814 | 0.788 | 0.793 | 0.914 | 0.958 | 1.23 | 0.785 | 0.95 | 1.32 | 1.13 | 1.01 | 0.971 | 0.48 | 0.486 | 0.45 | 0.513 | 0.341 | 0.306
12 | NCI-H1666 | 1.22 | 0.818 | 1.05 | 0.622 | 0.983 | 0.633 | 0.59 | 0.565 | 0.561 | 0.614 | 0.808 | 0.807 | 0.996 | 0.767 | 0.8 | 0.756 | 0.688 | 0.785 | 0.993 | 0.723
13 | LCLC-97TM1 | 0.345 | 0.337 | 0.367 | 0.297 | 0.261 | 1.14 | 0.806 | 1.15 | 0.955 | 1.18 | 0.654 | 0.654 | 0.608 | 0.475 | 0.0995 | 0.206 | 0.188 | 0.166 | 0.15 | 0.159
14 | NCI-H1299 | 1.08 | 1.08 | 1.03 | 0.973 | 1.05 | 1.04 | 0.951 | 0.909 | 0.939 | 0.995 | 1.02 | 0.961 | 1.01 | 0.981 | 1.07 | 1.13 | 0.904 | 0.942 | 0.777 | 1.01
15 | NCI-H3122 | 1.02 | 1.02 | 1.02 | 1.01 | 1.02 | 1 | 1.06 | 1.04 | 0.877 | 0.995 | 1.09 | 0.983 | 1.08 | 1.01 | 0.975 | 1.11 | 0.983 | 0.981 | 0.985 | 1.02
16 | NCI-H2009 | 1.19 | 1.21 | 1.06 | 1.15 | 1.16 | 0.882 | 0.872 | 1.02 | 0.868 | 0.917 | 1.25 | 0.921 | 1.07 | 0.516 | 0.536 | 1.25 | 1.18 | 1.11 | 1.19 | 1.06
